Assay results taken from US9617256B2 (priority 2007, dated 2017).
In brackets after ≈: the same amount, converted by molar mass. Like-named read-outs stand apart in the source and are kept apart here.

Legend:
[1] = test system: AECO001 (ATCC25922); assay: MIC broth microdilution, AECO001; assay type: cell-based, E. coli; conditions: for MIC: Escherichia coli; for Ratio of MICs on AECO001 [Cpd (A = —CHCH3NH2)/Cpd (A = —C(CH3)2NH2)]: MIC of paired compound with A = —CHCH3NH2 divided by MIC of compound with A = —C(CH3)2NH2, n=2 data, pairs identical except for the A moiety
How it was run: (§1)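 Minimum inhibitory concentrations followed CLSI broth microdilution guidelines: cation-adjusted Mueller-Hinton broth, 2-fold serial drug dilutions, final inoculum 3×10^5–7×10^5 CFU/mL, ambient air at 35° C. for 18-24 hours. Quality-control strains and levofloxacin monitored performance.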

[2] = test system: AECO063 (ATCC25922 bearing an acrAB mutation); assay: microbe, parasite or virus in culture; assay type: cell-based, E. coli; conditions: Escherichia coli, ATCC25922, read-out: MIC AECO063
How it was run: as §1

[3] = test system: APAE001 (ATCC27853); assay: MIC broth microdilution, APAE001; assay type: cell-based, P. aeruginosa; conditions: Pseudomonas aeruginosa, ATCC27853, read-out: MIC APAE001, APAE001 (ATCC27853)
How it was run: as §1

[4] = test system: APAE006 (strain of P. aeruginosa in which all efflux pumps are inactivated); assay: microbe, parasite or virus in culture; assay type: cell-based; conditions: Pseudomonas aeruginosa, read-out: MIC APAE006, APAE006, all efflux pumps inactivated
How it was run: (§2)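 Strains were grown overnight at 35° C. on Mueller-Hinton agar, suspended to 0.5 McFarland and diluted to a final 3×10^5–7×10^5 CFU/mL. They were then exposed to 2-fold serial drug dilutions in cation-adjusted Mueller-Hinton broth and incubated 18-24 hours at 35° C.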

[5] = test system: APAE006 in the presence of 8 micrograms per milliliter of polymyxin B nonapeptide; assay type: cell-based, P. aeruginosa; conditions: APAE006 with 8 micrograms per milliliter polymyxin B nonapeptide
How it was run: as §2

[6] = test system: AABA1060 (clinical isolate of Acinetobacter baumannii); assay: MIC broth microdilution, AABA1060; assay type: cell-based; conditions: Acinetobacter baumannii, read-out: MIC AABA1060
How it was run: as §1

[7] = test system: ASAU001 (laboratory strain of S. aureus, ATCC29213); assay: MIC broth microdilution, ASAU001; assay type: cell-based; conditions: Staphylococcus aureus, ATCC29213, read-out: MIC ASAU001
How it was run: as §1

[8] = ATCC25922, read-out: MIC AECO001
[9] = ATCC25922, read-out: MIC AECO001 HSA AGP

| Compound | MIC [1, 8] | MIC [1, 9] | MIC [2] | MIC [3] | MIC [4] | MIC APAE006 + PMBN [5] | MIC [6] | MIC [7] | Ratio of MICs on AECO001 [Cpd (A = —CHCH3NH2)/Cpd (A = —C(CH3)2NH2)] [1] |
| --- | --- | --- | --- | --- | --- | --- | --- | --- | --- |
| C[C@@H](O)[C@H](NC(=O)c1ccc(C#Cc2ccc(CNCC(F)F)cc2)cc1)C(=O)NO [Example 119-4] | < 2 µg/mL | < 2 µg/mL | < 2 µg/mL | < 2 µg/mL | < 2 µg/mL | A (MIC's of 2.0 μg/mL or less = A) | 2 to 16 µg/mL (≈ 4.64 to 37.1 µM) | 16 to 64 µg/mL (≈ 37.1 to 148 µM) |  |
| CC(C)(O)[C@H](NC(=O)c1ccc(C#Cc2ccc(CNCC(F)F)cc2)cc1)C(=O)NO [Example 119-5] | < 2 µg/mL | < 2 µg/mL | < 2 µg/mL | < 2 µg/mL | < 2 µg/mL | A (MIC's of 2.0 μg/mL or less = A) | < 2 µg/mL | 16 to 64 µg/mL (≈ 35.9 to 144 µM) |  |
| CC(C)(N)[C@H](NC(=O)c1ccc(C#Cc2ccc(CNC3CC3)cc2)cc1)C(=O)NO [Example 121-1, N—((S)-2-Amino-1-hydroxycarbamoyl-2-methyl-propyl)-4-(4-cyclopropylaminomethyl-phenylethynyl)-benzamide] | < 2 µg/mL | < 2 µg/mL | < 2 µg/mL | < 2 µg/mL | < 2 µg/mL | A (MIC's of 2.0 μg/mL or less = A) | 2 to 16 µg/mL (≈ 4.76 to 38 µM) | 16 to 64 µg/mL (≈ 38 to 152 µM) | 4.0 |
| COCCNCc1ccc(C#Cc2ccc(C(=O)N[C@H](C(=O)NO)[C@@H](C)N)cc2)cc1 [Example 122-1, N-((1S,2R)-2-Amino-1-hydroxycarbamoyl-propyl)-4-{4-[(2-methoxy-ethylamino)-methyl]-phenylethynyl}-benzamide] | 2 to 16 µg/mL (≈ 4.71 to 37.7 µM) | 2 to 16 µg/mL (≈ 4.71 to 37.7 µM) | < 2 µg/mL | 2 to 16 µg/mL (≈ 4.71 to 37.7 µM) | < 2 µg/mL | A (MIC's of 2.0 μg/mL or less = A) | 16 to 64 µg/mL (≈ 37.7 to 151 µM) | 16 to 64 µg/mL (≈ 37.7 to 151 µM) |  |
| CC(C)(C)CNCc1ccc(C#Cc2ccc(C(=O)N[C@H](C(=O)NO)C(C)(C)N)cc2)cc1 [Example 122-2] | < 2 µg/mL | 2 to 16 µg/mL (≈ 4.44 to 35.5 µM) | < 2 µg/mL | < 2 µg/mL | < 2 µg/mL | A (MIC's of 2.0 μg/mL or less = A) | 2 to 16 µg/mL (≈ 4.44 to 35.5 µM) | 16 to 64 µg/mL (≈ 35.5 to 142 µM) |  |
| CC(C)(N)[C@H](NC(=O)c1ccc(C#Cc2ccc(CNCC(F)F)cc2)cc1)C(=O)NO [Example 122-3] | < 2 µg/mL | < 2 µg/mL | < 2 µg/mL | < 2 µg/mL | < 2 µg/mL | A (MIC's of 2.0 μg/mL or less = A) | < 2 µg/mL | 16 to 64 µg/mL (≈ 36 to 144 µM) |  |
| CC(C)(N)[C@H](NC(=O)c1ccc(C#Cc2ccc(CN3CCS(=O)(=O)CC3)cc2)cc1)C(=O)NO [Example 122-4] | < 2 µg/mL | 2 to 16 µg/mL (≈ 4.01 to 32.1 µM) | < 2 µg/mL | < 2 µg/mL | < 2 µg/mL | A (MIC's of 2.0 μg/mL or less = A) | < 2 µg/mL | 16 to 64 µg/mL (≈ 32.1 to 128 µM) |  |
| CC(C)(N)[C@H](NC(=O)c1ccc(C#Cc2ccc(CNCCF)cc2)cc1)C(=O)NO [Example 122-6] | < 2 µg/mL | < 2 µg/mL | < 2 µg/mL | < 2 µg/mL | < 2 µg/mL | A (MIC's of 2.0 μg/mL or less = A) | 2 to 16 µg/mL (≈ 4.69 to 37.5 µM) | 16 to 64 µg/mL (≈ 37.5 to 150 µM) | 2.1 |
| CC(C)(O)[C@H](NC(=O)c1ccc(C#Cc2ccc(CN3CCCOCC3)cc2)cc1)C(=O)NO [Example 122-8] | < 2 µg/mL | < 2 µg/mL | < 2 µg/mL | < 2 µg/mL | < 2 µg/mL | A (MIC's of 2.0 μg/mL or less = A) | 2 to 16 µg/mL (≈ 4.3 to 34.4 µM) | 16 to 64 µg/mL (≈ 34.4 to 137 µM) |  |
| C[C@@H](N)[C@H](NC(=O)c1ccc(C#Cc2ccc(COC3CC3)cc2)cc1)C(=O)NO [Example 123-1, N-((1S,2R)-2-Amino-1-hydroxycarbamoyl-propyl)-4-(4-cyclopropoxymethyl-phenylethynyl)-benzamide] | < 2 µg/mL | 2 to 16 µg/mL (≈ 4.91 to 39.3 µM) | < 2 µg/mL | 2 to 16 µg/mL (≈ 4.91 to 39.3 µM) | < 2 µg/mL | A (MIC's of 2.0 μg/mL or less = A) | 2 to 16 µg/mL (≈ 4.91 to 39.3 µM) | 16 to 64 µg/mL (≈ 39.3 to 157 µM) |  |
| C[C@@H](N)[C@H](NC(=O)c1ccc(C#Cc2ccc(COCC(F)(F)F)cc2)cc1)C(=O)NO [Example 124-1, N-((1S,2R)-2-Amino-1-hydroxycarbamoyl-propyl)-4-[4-(2,2,2-trifluoro-ethoxymethyl)-phenylethynyl]-benzamide] | < 2 µg/mL | 2 to 16 µg/mL (≈ 4.45 to 35.6 µM) | < 2 µg/mL | 2 to 16 µg/mL (≈ 4.45 to 35.6 µM) | < 2 µg/mL | A (MIC's of 2.0 μg/mL or less = A) | 16 to 64 µg/mL (≈ 35.6 to 142 µM) | 16 to 64 µg/mL (≈ 35.6 to 142 µM) |  |
| CC(C)OCc1ccc(C#Cc2ccc(C(=O)N[C@H](C(=O)NO)[C@@H](C)N)cc2)cc1 [Example 124-2] | < 2 µg/mL | 2 to 16 µg/mL (≈ 4.88 to 39.1 µM) | < 2 µg/mL | 2 to 16 µg/mL (≈ 4.88 to 39.1 µM) | < 2 µg/mL | A (MIC's of 2.0 μg/mL or less = A) | 2 to 16 µg/mL (≈ 4.88 to 39.1 µM) | 16 to 64 µg/mL (≈ 39.1 to 156 µM) |  |
| C[C@@H](N)[C@H](NC(=O)c1ccc(C#Cc2ccc(OC3CC3)cc2)cc1)C(=O)NO [Example 125-1, N-((1S,2R)-2-Amino-1-hydroxycarbamoyl-propyl)-4-(4-cyclopropoxy-phenylethynyl)-benzamide] | < 2 µg/mL | 2 to 16 µg/mL (≈ 5.08 to 40.7 µM) | < 2 µg/mL | 2 to 16 µg/mL (≈ 5.08 to 40.7 µM) | < 2 µg/mL | A (MIC's of 2.0 μg/mL or less = A) | < 2 µg/mL | 16 to 64 µg/mL (≈ 40.7 to 163 µM) |  |
| CCOCc1ccc(C#Cc2ccc(C(=O)N[C@H](C(=O)NO)C(C)(C)N)cc2)cc1 [Example 126-1, N—((S)-2-Amino-1-hydroxycarbamoyl-2-methyl-propyl)-4-(4-ethoxymethyl-phenylethynyl)-benzamide] | < 2 µg/mL | < 2 µg/mL | < 2 µg/mL | < 2 µg/mL | < 2 µg/mL | A (MIC's of 2.0 μg/mL or less = A) | < 2 µg/mL | 16 to 64 µg/mL (≈ 39.1 to 156 µM) |  |
| C[C@@H](N)[C@H](NC(=O)c1ccc(C#Cc2ccc(NC(=O)CNC3CC3)cc2)cc1)C(=O)NO [Example 130-1, N-((1S,2R)-2-Amino-1-hydroxycarbamoyl-propyl)-4-[4-(2-cyclopropylamino-acetylamino)-phenylethynyl]-benzamide] | 2 to 16 µg/mL (≈ 4.45 to 35.6 µM) | 16 to 64 µg/mL (≈ 35.6 to 142 µM) | < 2 µg/mL | < 2 µg/mL | < 2 µg/mL | A (MIC's of 2.0 μg/mL or less = A) | 2 to 16 µg/mL (≈ 4.45 to 35.6 µM) | 16 to 64 µg/mL (≈ 35.6 to 142 µM) |  |
| O=C(CNC1CC1)NC[C@H](NC(=O)c1ccc(C#Cc2ccccc2)cc1)C(=O)NO [Example 132-1, N—[(S)-2-(2-Cyclopropylamino-acetylamino)-1-hydroxycarbamoyl-ethyl]-4-phenylethynyl-benzamide] | < 2 µg/mL | 2 to 16 µg/mL (≈ 4.76 to 38.1 µM) | < 2 µg/mL | 2 to 16 µg/mL (≈ 4.76 to 38.1 µM) | < 2 µg/mL | A (MIC's of 2.0 μg/mL or less = A) | 2 to 16 µg/mL (≈ 4.76 to 38.1 µM) | 16 to 64 µg/mL (≈ 38.1 to 152 µM) |  |
